Test results: US5304474A, “Hydrophobic peptide esters and amides” (Board of Regents, The University of Texas System, priority 1991, dated 1994)
“Also recorded” adds a separate entry of the source.

Tests used:
[1] = tested on: Daudi; assay: 51Cr release toxicity assay; type: cell-based, human; settings: broad range of concentrations
Excerpt: (§1) HS-Sultan, a human plasma cell line (Goldblum et al. (1973) Proc. Seventh Leucocyte Culture Conference, ed by Daguilland, Acad. Press N.Y. pp 15-28), Daudi, a B lymphoblastoid cell line (Klein et al. (1968) Cancer Res. V 28, p 1300), MoLT-4, an acute lymphoblastic T-cell leukemia line (Monowada et al. (1972) J. Nat'l Canc. Inst. V 49, p 891), and U-937, a human monocyte-like cell line (Koren et al. (1979) Nature V 279, p 891) were obtained from the American Type Culture Collection, Rockville, Md. These lines as well as HEp-2 a human epidermoid carcinoma line (a generous gift of Dr. R. Sontheimer, UTHSCD); Currie, a human renal cell carcinoma line (a generous gift of Dr. M. Prager, UTHSCD); and K562, a human erythroleukemia line (a generous gift of Dr. M. Bennett, UTHSCD) were maintained in culture in medium RMPI supplemented with 10% FBS. Human dermal fibroblasts (a generous gift of Dr. T. Geppert, UTHSCD) were serially passaged in culture as well while human umbilical vein endothelial cells (a generous gift of Dr. A. Johnson, UTHSCD) were used after one subculture Epttein Barr virus (EBV) transformed B lymphoblastoid cell lines JM.6 and SM.4 (kindly provided by Dr. J. Moreno, UTHSCD) and cloned EBV transformed B cell lines SDL-G2 and D8-219 (a generous gift of Drs. L. Stein and M. Dosch, Hospital for Sick Children, Toronto, Canada) were maintained in culture in medium RPMI supplemented with 10% FBS.
(§2) In some experiments, toxicity of Leu-Leu-OMe for a variety of cell populations was assessed by ^51 Cr release In assays where cells obtained from suspension culture were to be used, cells were labeled with Na2^51 CrO4 (ICN, Plainview, N.Y.) for 60-90 minutes at 37° C. and then washed three times. Cells were then suspended in PBS (2.5×10^6 /ml) and incubated in microtiter plates, 50 microL/well with indicated concentrations of Leu-Leu-OMe for 15 minutes at room temperature. […] Following ^51 Cr labeling, wells were thoroughly washed and varying concentrations of Leu-Leu-OMe added in 50 microL PBS and the plates incubated for 15 minutes at room temperature.
(§3) Following such initial serum-free incubations, 200 microL/well of medium RPMI containing 10% FBS were added and the plates incubated for another 4 hours prior to removal of 100 microliters of supernatant. Radioactivity in the supernatant was measured in an auto-gamma scintillation spectrometer (Packard Instrument Co., Downers Grove, Ill.). The percent specific release was calculated from the formula: [formula] in which maximal release refers to cpm obtained in wells containing 50% lysing agent (American Scientific Products, McGraw Park, Ill.) and spontaneous release refers to cpm released by cells incubated in control medium in the absence of Leu-Leu-OMe or the lysing agent. Only experiments in which spontaneous release was 25% were used for subsequent data interpretation.
(§4) In developing the data expressed in FIG. 7, cells (2.5×10^6 /ml) were exposed to the indicated concentrations of Leu-Leu-OMe for 15 minutes at room temperature, then specific ^51 Cr release during the next four hours was assessed. Data for the EBV transformed lines JM.6, SDL-G2, D8-219, and SM.4, respectively, are shown in order from top to bottom.

[2] = tested on: EBV-transformed B cell lines or clones; assay: 51Cr release toxicity assay; type: cell-based, human
Excerpt: as §1, §2, §3, §4

[3] = tested on: MoLT-4; assay: 51Cr release toxicity assay; type: cell-based, human; settings: broad concentration range
Excerpt: as §1, §2, §3, §4

[4] = tested on: K562; assay: 51Cr release toxicity assay; type: cell-based, human
Excerpt: as §1, §2, §3, §4

[5] = tested on: HS-Sultan; assay: 51Cr release toxicity assay; type: cell-based, human; settings: broad range of concentrations
Excerpt: as §1, §2, §3, §4

[6] = tested on: U937; assay: 51Cr release toxicity assay; type: cell-based, human
Excerpt: as §1, §2, §3, §4

[7] = tested on: mononuclear phagocytes (MP); assay: Loss of MP from PBM, anti-MP (63D3) staining; type: cell-based, human; settings: 15 minute exposure, 2 hours at 37° C. (FIG. 6)
Protocol: In the experiments depicted in FIG. 6, freshly isolated PBM (2.5×10^6 /ml PBS and 1g/l glucose) were incubated at room temperature with varying concentrations of Leu-Leu-OMe. After a 15 minute exposure to this compound, the cells were washed, incubated for 2 hours at 37° C. and then assessed for the percentage of remaining viable cells which were stained by anti-MP or anti-NK monoclonal antibodies. Preincubation with greater than 25-50 micromola Leu-Leu-OMe led to loss of NK cells.
Anti-MP monoclonal antibodies (63D3) and anti-NK monoclonal antibodies (leu 11b) were obtained from Becton Dickinson Monoclonal Center, lnc., Mountain View, Cal. The antibody staining and Fluorescence Activated Cell Sorter (FACS) procedure was that of Rosenberg et al. (1981) (J. Immunol. V 126, p 1473). Data are expressed as percent of antibody staining in control cells (mean±SEM, n=4).

[8] = tested on: renal cell carcinoma line, Currie; assay: 51Cr release toxicity assay
[9] = tested on: B6 spleen cells (NK, allospecific cytotoxic T cells); settings: 250 micro-M (ref. 12); cited from earlier work
[10] = tested on: T8-enriched population; assay: 51Cr release toxicity assay; type: cell-based, human
Protocol: as §2
as §3, with “agent.” for “agent. Only experiments in which spontaneous release was 25% were used for subsequent data interpretation.”
In developing the data expressed in FIG. 7, cells (2.5×10^6 /ml) were exposed to the indicated concentrations of Leu-Leu-OMe for 15 minutes at room temperature, then specific ^51 Cr release during the next four hours was assessed.

[11] = tested on: nylon wool non-adherent lymphocytes (NAC); assay: 51Cr release toxicity assay; type: cell-based, human; settings: 25 to 50 micromolar
Protocol: as §2, §3, §4

[12] = tested on: PBM; assay: 51Cr release toxicity assay; type: cell-based, human; settings: 15 minutes exposure, 4 hour release (FIG. 7)
Protocol: as §2, §3, §4

## COC(=O)[C@H](CC(C)C)NC(=O)[C@@H](N)CC(C)C [Leu-Leu-OMe, L-leucyl-L-leucine methyl ester]
[1]
  51Cr release and proliferative rate: no significant ^51 Cr release or alteration in subsequent proliferative rate
[2]; 1 mM, some EBV lines
  51Cr release: less than 20%
[2]; 250 micromolar, other lines
  51Cr release: 25-35%
[2]; less than 250 micromolar
  toxicity (51Cr release): no significant toxicity
[3]
  toxicity (51Cr release): no detectable Leu-Leu-OMe toxicity over a broad concentration range
[4]; 100 micromolar or lower
  51Cr release and proliferative rate: no significant ^51 Cr release or alteration in subsequent proliferative rate
[4]; higher than 100 micromolar
  51Cr release and proliferative capacity: modest amounts of ^51 Cr release and partial loss of proliferative capacity
[5]
  51Cr release and proliferative rate: no significant ^51 Cr release or alteration in subsequent proliferative rate
[6]
  concentration above which extensive 51Cr release and no viable proliferating cell: more than 250 micromolar
[6]; concentration-dependent
  toxicity (51Cr release): susceptible to concentration-dependent Leu-Leu-OMe toxicity
[7]
  loss of MP from PBM, in words: did not deplete MP from PBM; also recorded: higher concentrations of Leu-Leu-OMe caused loss of MP
[8]
  51Cr release: no significant Leu-Leu-OMe induced ^51 Cr release
[8]; 500 micromolar
  subsequent proliferative capacity: had no discernible effect on subsequent proliferative capacity
[8]; Renal Cell Carcinoma
  Leu--Leu--OMe Sensitivity (LD50): > 500 micro-M
[9]
  allocytotoxicity: near total ablation of allocytotoxicity
[10]; N-SRBC positive cells depleted of OKT4 positive cells
  51Cr release: produced high levels of ^51 Cr release
[10]; T-8 Cells
  Leu--Leu--OMe Sensitivity (LD50): 250 micro-M
[11]
  51Cr release: small but significant ^51 Cr release
[12]
  concentration for maximal achievable 51Cr release: greater than 100 micromolar
  concentration giving detectable 51Cr release: 25 to 50 µM
